Test results as given in ChEMBL document CHEMBL1201862, “PubChem BioAssay data set” (2004).
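Tested at 5 concentrations; 48 h exposure; 96-well plates; endpoints linearly interpolated, else capped at highest concentration. GI50 marks 50% less growth.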 Calls of active or inactive are those of the source. Rule as the data show it: active = GI50 up to about 1.1 µM and inactive = higher. Residues, ends and D or L forms follow the SMILES beside them. Groups on a side chain read outwards from the residue. *: point of attachment. Cbz = O=C(OCc1ccccc1)*; Boc = CC(C)(C)OC(=O)*

Experiments:
Assay in all cases: growth of human tumour cells (NCI), 48 h
[1] = system: OVCAR-3
[2] = system: RPMI-8226
[3] = system: SNB-75
[4] = system: CCRF-CEM
[5] = system: OVCAR-4
[6] = system: Hs-578T
[7] = system: SF-539
[8] = system: PC-3
[9] = system: UACC-257
[10] = system: HCT-116
[11] = system: HOP-62
[12] = system: OVCAR-5
[13] = system: IGROV-1
[14] = system: T47D
[15] = system: SK-MEL-2
[16] = system: UO-31
[17] = system: SW-620
[18] = system: NCI-H460
[19] = system: DU-145

Compound | GI50 [1] | GI50 [2] | GI50 [3] | GI50 [4] | GI50 [5] | GI50 [6] | GI50 [7] | GI50 [8] | GI50 [9] | GI50 [10] | GI50 [11] | GI50 [12] | GI50 [13] | GI50 [14] | GI50 [15] | GI50 [16] | GI50 [17] | GI50 [18] | GI50 [19]
COC(=O)CCC(=O)c1ccc2c(c1)CC1(C2)Cc2ccc(C(=O)CCC(=O)OC)cc2C1 | 61.2 µM (inactive) | 35.2 µM (inactive) | < 0.01 µM (active) | > 100 µM (inactive) | 32.7 µM (inactive) | > 100 µM (inactive) | 67.5 µM (inactive) | 39.8 µM (inactive) | 85.1 µM (inactive) | > 100 µM (inactive) | 43.5 µM (inactive) | > 100 µM (inactive) | > 100 µM (inactive) | 56 µM (inactive) | 0.61 µM (active) | 30.5 µM (inactive) |  |  | 
O=C(Nc1ccc(Br)c2ccccc12)c1ccc2ccccc2c1O | 3.37 µM (inactive) |  | 2.3 µM (inactive) | 2.86 µM (inactive) | 19.4 µM (inactive) | 2.79 µM (inactive) | 5.16 µM (inactive) | 1.35 µM (inactive) | 1.95 µM (inactive) | 2.85 µM (inactive) | 2.32 µM (inactive) | 2.75 µM (inactive) | 2.9 µM (inactive) | 1.73 µM (inactive) | 0.597 µM (active) | 2.51 µM (inactive) | 2.26 µM (inactive) | 2.23 µM (inactive) | 3.89 µM (inactive)
CCOC(=O)C1(C(=O)OCC)CN(CC)CN(c2ccccc2)C1 | 18.5 µM (inactive) | 18.2 µM (inactive) | 19.4 µM (inactive) | 16.2 µM (inactive) | 25.1 µM (inactive) | > 100 µM (inactive) | 21.5 µM (inactive) |  | 17.2 µM (inactive) | 48.3 µM (inactive) | 21.1 µM (inactive) | 19.2 µM (inactive) | 19.6 µM (inactive) |  |  | 28 µM (inactive) | 30.6 µM (inactive) | 35.4 µM (inactive) | 30 µM (inactive)
Cc1c(-c2ccccc2)n(C)c2cn[nH]c(=O)c12 | 19.7 µM (inactive) | 38.1 µM (inactive) |  | 40.2 µM (inactive) |  | 41.2 µM (inactive) | 45 µM (inactive) | 19.7 µM (inactive) | 45.5 µM (inactive) | 35.9 µM (inactive) | 30 µM (inactive) | 52.2 µM (inactive) | 70 µM (inactive) |  | 22.7 µM (inactive) | 44.1 µM (inactive) | 47.1 µM (inactive) | 63.8 µM (inactive) | 67.8 µM (inactive)
Cc1nc(-c2cc3cc(Cl)ccc3oc2=O)cc2c1c(=O)oc1ccc(Cl)cc12 | > 100 µM (inactive) | > 100 µM (inactive) |  | > 100 µM (inactive) |  | 72.3 µM (inactive) |  | > 100 µM (inactive) | > 100 µM (inactive) | > 100 µM (inactive) | > 100 µM (inactive) |  | > 100 µM (inactive) | > 100 µM (inactive) | > 100 µM (inactive) | > 100 µM (inactive) | > 100 µM (inactive) | > 100 µM (inactive) | > 100 µM (inactive)
COC(=O)c1cc(-c2c[nH]cc2C(=O)OCc2ccccc2)cn1S(=O)(=O)c1ccc(C)cc1 | > 100 µM (inactive) |  | > 100 µM (inactive) | > 100 µM (inactive) | > 100 µM (inactive) | > 100 µM (inactive) | > 100 µM (inactive) | 36.7 µM (inactive) | 7.93 µM (inactive) | > 100 µM (inactive) | > 100 µM (inactive) | > 100 µM (inactive) | > 100 µM (inactive) | 4.71 µM (inactive) | > 100 µM (inactive) | > 100 µM (inactive) |  | 57.3 µM (inactive) | > 100 µM (inactive)
Cn1c(COC(=O)Nc2ccccc2)c(COC(=O)Nc2ccccc2)c2ccc3cc(Cl)c(Cl)cc3c21 | 11 µM (inactive) |  | 8.53 µM (inactive) | 1.51 µM (inactive) |  | 5.73 µM (inactive) | 10.8 µM (inactive) | 8.05 µM (inactive) | 8.39 µM (inactive) | 9.66 µM (inactive) |  | 10.7 µM (inactive) | 8.95 µM (inactive) | 1.53 µM (inactive) | 4.31 µM (inactive) | 10.4 µM (inactive) | 2.69 µM (inactive) | 8.2 µM (inactive) | 11.3 µM (inactive)
CCN(CCCN(CC)C(=O)N[C@@H](Cc1ccccc1)C(=O)NC)C(=O)N[C@@H](Cc1ccccc1)C(=O)NC | > 100 µM (inactive) |  |  |  | > 100 µM (inactive) | > 100 µM (inactive) | > 100 µM (inactive) | > 100 µM (inactive) | > 100 µM (inactive) | > 100 µM (inactive) | > 100 µM (inactive) | > 100 µM (inactive) |  | > 100 µM (inactive) | > 100 µM (inactive) | > 100 µM (inactive) | > 100 µM (inactive) | > 100 µM (inactive) | > 100 µM (inactive)
O=C1c2ccccc2C(=O)c2c(NC(=O)C3CC3)ccc(NC(=O)C3CC3)c21 | > 100 µM (inactive) | > 100 µM (inactive) |  |  |  | > 100 µM (inactive) | > 100 µM (inactive) | > 100 µM (inactive) | > 100 µM (inactive) | > 100 µM (inactive) | > 100 µM (inactive) | > 100 µM (inactive) | > 100 µM (inactive) | > 100 µM (inactive) | > 100 µM (inactive) | > 100 µM (inactive) | > 100 µM (inactive) | > 100 µM (inactive) | 
CC(C)CC(NC(=O)OCc1ccccc1)C(=O)NCCCCC(NC(=O)C(CCCCNC(=O)C(CC(C)C)NC(=O)OCc1ccccc1)NC(=O)C(CCCCNC(=O)C(CC(C)C)NC(=O)OCc1ccccc1)NC(=O)C(CCCCNC(=O)C(CC(C)C)NC(=O)OCc1ccccc1)NC(=O)OC(C)(C)C)C(=O)O (stereo unspecified) (Boc-K([Leu-Cbz])K([Leu-Cbz])K([Leu-Cbz])K([Leu-Cbz])-OH; configuration not given here) | > 25 µM (inactive) | > 25 µM (inactive) | > 25 µM (inactive) | > 25 µM (inactive) | > 25 µM (inactive) |  |  | > 25 µM (inactive) | > 25 µM (inactive) | > 25 µM (inactive) | > 25 µM (inactive) | > 25 µM (inactive) | > 25 µM (inactive) | > 25 µM (inactive) | > 25 µM (inactive) | > 25 µM (inactive) | > 25 µM (inactive) | > 25 µM (inactive) | > 25 µM (inactive)
COC(=O)C(Cc1ccccc1)NP(=O)(O)OCC1OC(n2cc(Br)c(=O)[nH]c2=O)CC1O (stereo unspecified) | > 100 µM (inactive) |  | > 100 µM (inactive) | > 100 µM (inactive) | > 100 µM (inactive) | > 100 µM (inactive) | > 100 µM (inactive) | > 100 µM (inactive) | > 100 µM (inactive) | > 100 µM (inactive) | > 100 µM (inactive) | > 100 µM (inactive) | > 100 µM (inactive) | > 100 µM (inactive) | > 100 µM (inactive) | > 100 µM (inactive) | > 100 µM (inactive) | > 100 µM (inactive) | > 100 µM (inactive)
CCOC(=O)[C@@H]1C[C@@H]1c1ccc(O)c(O)c1 | 16.6 µM (inactive) | 18.1 µM (inactive) |  |  |  | 43.1 µM (inactive) | 20.6 µM (inactive) | 12.7 µM (inactive) | 39.2 µM (inactive) | 16.3 µM (inactive) | 17.6 µM (inactive) | > 100 µM (inactive) | 35.3 µM (inactive) | 16 µM (inactive) | 29.7 µM (inactive) | 10.7 µM (inactive) | 14.3 µM (inactive) | 58.9 µM (inactive) | 64 µM (inactive)
COc1cccc(Nc2nc3c([nH]2)c(=O)n(C)c(=O)n3C)c1 |  | > 10 µM (inactive) | > 10 µM (inactive) | > 10 µM (inactive) | > 10 µM (inactive) |  |  | > 10 µM (inactive) | > 10 µM (inactive) |  | > 10 µM (inactive) |  | > 10 µM (inactive) | > 10 µM (inactive) |  |  | > 10 µM (inactive) |  | > 10 µM (inactive)
CCOc1ccc2c(c1)C(/C(C(Cl)=C(Cl)Cl)=[N+](/[O-])OC(=O)c1ccccc1)=N2 | 30.8 µM (inactive) |  | 56.8 µM (inactive) | 36.9 µM (inactive) | 23 µM (inactive) | 52.8 µM (inactive) | 79.3 µM (inactive) | 30.9 µM (inactive) | 43.2 µM (inactive) | 46 µM (inactive) | 65.8 µM (inactive) | 76.4 µM (inactive) |  | 26 µM (inactive) | 85.9 µM (inactive) | > 100 µM (inactive) | 65.8 µM (inactive) | 76 µM (inactive) | 47.2 µM (inactive)
O=C(/C=C/c1ccc(O)cc1)c1ccc2c(c1)OCO2 | 16.5 µM (inactive) |  | 12.4 µM (inactive) | 1.21 µM (inactive) | 21.1 µM (inactive) |  | 13.8 µM (inactive) | 24.6 µM (inactive) | 18.6 µM (inactive) | 12.5 µM (inactive) | 18.7 µM (inactive) | 27.4 µM (inactive) | 15.5 µM (inactive) | 26.6 µM (inactive) | 27 µM (inactive) | 18.1 µM (inactive) | 19.1 µM (inactive) | 26.2 µM (inactive) | 33.4 µM (inactive)
CC(=O)Nc1ccc2cc3c(nc2n1)c1cccnc1n3S(=O)(=O)c1ccccc1 | > 100 µM (inactive) | 19.1 µM (inactive) | 59.6 µM (inactive) | > 100 µM (inactive) | > 100 µM (inactive) | > 100 µM (inactive) |  | > 100 µM (inactive) | > 100 µM (inactive) | 1.36 µM (inactive) | > 100 µM (inactive) | > 100 µM (inactive) | > 100 µM (inactive) |  | > 100 µM (inactive) | 0.195 µM (active) | > 100 µM (inactive) | > 100 µM (inactive) | 
